Here are results for 3 molecules from ChEMBL document CHEMBL5154787 (J Med Chem, 2022).

Data set [1] can be described thus: Cardiotoxicity in aortic ring (unknown origin) assessed as relaxation of phenylephrine induced aortic ring contraction at 10 uM incubated for 1 hr. The following applies: human. The class given is toxicity, tissue-based, Aorta. Details: scale not given: the % may be the effect or the level left.
Data set [2] is described as follows: Metabolic stability in rat liver microsomes assessed as parent compound remaining at 0.5 uM incubated for 10 mins in presence of NADPH by LC-MS/MS analysis. The following applies: read-out: Stability. The class given is ADME, Microsome. For orientation: Liver microsomes are vesicles of endoplasmic reticulum, rich in cytochrome P450 enzymes.
A further data set concerns the target Aurora kinase C (Homo sapiens, UniProt Q9UQB9). The data set can be described thus: Inhibition of AURC (unknown origin).
Data set [3] is described as follows: Metabolic stability in mouse liver microsomes assessed as parent compound remaining at 0.5 uM incubated for 10 mins in presence of NADPH by LC-MS/MS analysis. Type of data set: ADME, Microsome. As to conditions: liver microsomes, read-out: Stability.
Data set [4] addresses T1, AP2-associated protein kinase 1 (Homo sapiens, UniProt Q2M2I8). The data set can be described thus: Inhibition of bacterially expressed GST-Xa-tagged human AAK1 using 5-FAM-labelled Aha-KEEQSQITSQVTGQIGWR-NH2 peptide as substrate incubated for 3 hrs in presence of ATP by electrophoretic analysis.
A short description of data set [5]: Metabolic stability in human liver microsomes assessed as parent compound remaining at 0.5 uM incubated for 10 mins in presence of NADPH by LC-MS/MS analysis. As to conditions: read-out: Stability. Type of data set: ADME, Microsome.
Data set [6] concerns the target BMP-2-inducible protein kinase (Homo sapiens, UniProt Q9NSY1). Description: Inhibition of BIKE (unknown origin).
Data set [7] has as its target Protein kinase C beta type (Homo sapiens, UniProt P05771). The data set can be described thus: Inhibition of PKCb2 (unknown origin).
A further data set addresses Cytochrome P450 3A4 (Homo sapiens, UniProt P08684). Description: Inhibition of CYP3A4 (unknown origin) incubated for 10 mins in presence of NADPH by LC-MS/MS analysis. The class given is ADME.
The target in data set [8] is AP2-associated protein kinase 1 (Mus musculus, UniProt Q3UHJ0). Description: Displacement of 3H-LP-927443 from AAK1 in C57BL6 mouse brain homogenate assessed as inhibition constant incubated for 1 hr by liquid scintillation counter analysis. The class given is tissue-based.
Data set [9] deals with Myosin light chain kinase 2, skeletal/cardiac muscle (Homo sapiens, UniProt Q9H1R3). Description: Inhibition of MYLK2 (unknown origin).
For data set [10], the target named is Citron Rho-interacting kinase (Homo sapiens, UniProt O14578). Description: Inhibition of CRIK (unknown origin).
The target of data set [11] is MAP kinase-interacting serine/threonine-protein kinase 1 (Homo sapiens, UniProt Q9BUB5). The data set can be described thus: Inhibition of MNK1 (unknown origin).
Data set [12] addresses T1, AP2-associated protein kinase 1. The data set can be described thus: Inhibition of full length human AAK1 expressed in HEK293F cells assessed as suppression of AP2 phosphorylation measured after 3 hrs by Western blot analysis based cellular assay. The class given is cell-based. (In general: Immunoblotting shows a protein as a band on a membrane.)
Data set [13] deals with Rho-associated protein kinase 2 (Homo sapiens, UniProt O75116). The data set can be described thus: Inhibition of ROCK2 (unknown origin).
Data set [14] has as its target T2, Homeodomain-interacting protein kinase 4 (Homo sapiens, UniProt Q8NE63).
T2 sequence (Q8NE63 whole entry): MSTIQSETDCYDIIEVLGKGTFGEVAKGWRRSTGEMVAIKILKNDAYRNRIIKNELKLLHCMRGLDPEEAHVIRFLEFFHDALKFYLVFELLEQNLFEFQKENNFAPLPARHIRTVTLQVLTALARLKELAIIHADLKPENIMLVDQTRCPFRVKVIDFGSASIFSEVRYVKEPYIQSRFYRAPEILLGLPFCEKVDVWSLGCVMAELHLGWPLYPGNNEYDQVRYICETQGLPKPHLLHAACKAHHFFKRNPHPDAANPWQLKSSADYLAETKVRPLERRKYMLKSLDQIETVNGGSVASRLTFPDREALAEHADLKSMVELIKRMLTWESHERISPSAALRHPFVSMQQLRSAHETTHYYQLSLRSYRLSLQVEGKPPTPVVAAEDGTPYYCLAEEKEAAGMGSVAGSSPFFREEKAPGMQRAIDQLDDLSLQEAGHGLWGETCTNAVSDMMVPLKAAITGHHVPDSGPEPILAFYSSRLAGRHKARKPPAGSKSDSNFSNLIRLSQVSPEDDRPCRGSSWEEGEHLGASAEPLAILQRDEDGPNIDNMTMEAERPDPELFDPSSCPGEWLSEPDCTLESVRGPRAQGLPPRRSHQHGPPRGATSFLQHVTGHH
Description: Inhibition of HIPK4 (unknown origin).

The target in data set [15] is T3, Dual specificity mitogen-activated protein kinase kinase 1 (Homo sapiens, UniProt Q02750). Description: Inhibition of MEK1 (unknown origin).
In data set [16] the target is T3, Dual specificity mitogen-activated protein kinase kinase 1. The data set can be described thus: Inhibition of MAP2K1 (unknown origin).
Data set [17] addresses Dual specificity protein kinase CLK4 (Homo sapiens, UniProt Q9HAZ1). The data set can be described thus: Inhibition of CLK4 (unknown origin).
The nature of data set [18]: Inhibition of IGFR (unknown origin). Details: species or system Homo sapiens.

SMILES strings stand for the structures. A value given as a limit tells only on which side of the number the result lay.

Sequence of Cytochrome P450 3A4 (P08684 whole entry): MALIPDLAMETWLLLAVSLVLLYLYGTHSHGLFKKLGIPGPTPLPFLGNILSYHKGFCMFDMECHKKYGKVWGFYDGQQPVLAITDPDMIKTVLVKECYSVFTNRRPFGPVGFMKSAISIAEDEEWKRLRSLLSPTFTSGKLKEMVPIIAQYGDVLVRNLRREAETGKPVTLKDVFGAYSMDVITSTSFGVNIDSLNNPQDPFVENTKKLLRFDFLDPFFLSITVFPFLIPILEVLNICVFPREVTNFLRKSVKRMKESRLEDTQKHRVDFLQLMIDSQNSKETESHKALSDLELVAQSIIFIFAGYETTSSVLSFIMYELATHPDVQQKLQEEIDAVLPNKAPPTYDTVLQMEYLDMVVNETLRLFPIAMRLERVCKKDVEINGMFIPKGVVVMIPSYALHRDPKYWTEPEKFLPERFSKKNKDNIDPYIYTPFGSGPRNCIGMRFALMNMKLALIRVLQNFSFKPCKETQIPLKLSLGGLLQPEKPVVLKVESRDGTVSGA
T1 sequence (Q2M2I8 whole entry): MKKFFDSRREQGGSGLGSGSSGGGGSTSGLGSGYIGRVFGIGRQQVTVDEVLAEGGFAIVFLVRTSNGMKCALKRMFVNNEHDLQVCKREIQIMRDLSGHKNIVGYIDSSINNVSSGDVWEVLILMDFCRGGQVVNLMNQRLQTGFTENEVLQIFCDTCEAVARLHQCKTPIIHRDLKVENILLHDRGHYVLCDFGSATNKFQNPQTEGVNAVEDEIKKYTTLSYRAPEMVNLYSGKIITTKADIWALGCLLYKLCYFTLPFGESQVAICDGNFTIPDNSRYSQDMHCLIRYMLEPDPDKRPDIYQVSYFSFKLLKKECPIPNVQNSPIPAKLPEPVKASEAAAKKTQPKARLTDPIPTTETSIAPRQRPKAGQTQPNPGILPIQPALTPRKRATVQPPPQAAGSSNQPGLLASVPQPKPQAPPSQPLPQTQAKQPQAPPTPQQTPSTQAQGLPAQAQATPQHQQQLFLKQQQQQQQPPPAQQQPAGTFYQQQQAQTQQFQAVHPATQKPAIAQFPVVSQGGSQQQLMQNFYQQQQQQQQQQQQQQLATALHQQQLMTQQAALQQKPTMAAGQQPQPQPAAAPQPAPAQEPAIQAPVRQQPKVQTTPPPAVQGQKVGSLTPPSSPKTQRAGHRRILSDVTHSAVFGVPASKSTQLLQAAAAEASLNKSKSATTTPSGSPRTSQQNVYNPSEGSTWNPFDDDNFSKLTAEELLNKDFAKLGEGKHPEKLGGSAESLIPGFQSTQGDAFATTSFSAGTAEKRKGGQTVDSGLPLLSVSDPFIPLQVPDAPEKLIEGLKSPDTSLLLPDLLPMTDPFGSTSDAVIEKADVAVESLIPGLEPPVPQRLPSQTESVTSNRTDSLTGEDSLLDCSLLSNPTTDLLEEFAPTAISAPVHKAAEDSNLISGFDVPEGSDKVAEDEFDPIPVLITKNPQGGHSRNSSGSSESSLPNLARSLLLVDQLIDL
Sequence of BMP-2-inducible protein kinase (Q9NSY1 whole entry): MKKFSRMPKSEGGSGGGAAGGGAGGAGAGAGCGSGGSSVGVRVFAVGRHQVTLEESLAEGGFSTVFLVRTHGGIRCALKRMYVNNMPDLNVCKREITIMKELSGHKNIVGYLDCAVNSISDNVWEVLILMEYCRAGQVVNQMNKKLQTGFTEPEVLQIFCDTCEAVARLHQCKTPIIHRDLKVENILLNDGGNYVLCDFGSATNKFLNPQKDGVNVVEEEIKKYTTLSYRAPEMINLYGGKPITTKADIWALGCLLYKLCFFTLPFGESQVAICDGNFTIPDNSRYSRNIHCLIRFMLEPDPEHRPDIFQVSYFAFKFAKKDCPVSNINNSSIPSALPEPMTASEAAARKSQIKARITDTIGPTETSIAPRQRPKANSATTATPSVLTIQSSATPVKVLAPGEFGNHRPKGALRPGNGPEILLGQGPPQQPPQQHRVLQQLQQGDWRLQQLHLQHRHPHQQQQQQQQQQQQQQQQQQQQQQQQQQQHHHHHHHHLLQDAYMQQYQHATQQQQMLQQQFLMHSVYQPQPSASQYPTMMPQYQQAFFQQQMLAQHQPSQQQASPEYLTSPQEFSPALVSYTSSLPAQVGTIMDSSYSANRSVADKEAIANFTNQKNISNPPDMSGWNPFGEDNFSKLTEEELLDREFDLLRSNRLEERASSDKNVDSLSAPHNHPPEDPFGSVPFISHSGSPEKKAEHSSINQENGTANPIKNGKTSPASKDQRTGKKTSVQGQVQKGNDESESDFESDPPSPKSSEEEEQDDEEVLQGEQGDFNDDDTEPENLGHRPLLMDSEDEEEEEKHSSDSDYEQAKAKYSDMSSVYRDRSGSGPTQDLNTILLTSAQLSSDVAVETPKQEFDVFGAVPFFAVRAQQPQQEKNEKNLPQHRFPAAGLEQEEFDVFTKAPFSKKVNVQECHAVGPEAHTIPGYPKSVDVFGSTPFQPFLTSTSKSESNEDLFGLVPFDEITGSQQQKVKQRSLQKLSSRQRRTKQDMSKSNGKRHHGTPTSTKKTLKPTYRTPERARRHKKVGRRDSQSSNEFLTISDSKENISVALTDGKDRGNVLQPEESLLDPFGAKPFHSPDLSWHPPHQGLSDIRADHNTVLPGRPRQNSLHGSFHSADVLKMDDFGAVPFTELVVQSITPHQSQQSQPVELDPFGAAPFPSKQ
Sequence of AP2-associated protein kinase 1 (Mus musculus, UniProt Q3UHJ0) (Q3UHJ0 whole entry): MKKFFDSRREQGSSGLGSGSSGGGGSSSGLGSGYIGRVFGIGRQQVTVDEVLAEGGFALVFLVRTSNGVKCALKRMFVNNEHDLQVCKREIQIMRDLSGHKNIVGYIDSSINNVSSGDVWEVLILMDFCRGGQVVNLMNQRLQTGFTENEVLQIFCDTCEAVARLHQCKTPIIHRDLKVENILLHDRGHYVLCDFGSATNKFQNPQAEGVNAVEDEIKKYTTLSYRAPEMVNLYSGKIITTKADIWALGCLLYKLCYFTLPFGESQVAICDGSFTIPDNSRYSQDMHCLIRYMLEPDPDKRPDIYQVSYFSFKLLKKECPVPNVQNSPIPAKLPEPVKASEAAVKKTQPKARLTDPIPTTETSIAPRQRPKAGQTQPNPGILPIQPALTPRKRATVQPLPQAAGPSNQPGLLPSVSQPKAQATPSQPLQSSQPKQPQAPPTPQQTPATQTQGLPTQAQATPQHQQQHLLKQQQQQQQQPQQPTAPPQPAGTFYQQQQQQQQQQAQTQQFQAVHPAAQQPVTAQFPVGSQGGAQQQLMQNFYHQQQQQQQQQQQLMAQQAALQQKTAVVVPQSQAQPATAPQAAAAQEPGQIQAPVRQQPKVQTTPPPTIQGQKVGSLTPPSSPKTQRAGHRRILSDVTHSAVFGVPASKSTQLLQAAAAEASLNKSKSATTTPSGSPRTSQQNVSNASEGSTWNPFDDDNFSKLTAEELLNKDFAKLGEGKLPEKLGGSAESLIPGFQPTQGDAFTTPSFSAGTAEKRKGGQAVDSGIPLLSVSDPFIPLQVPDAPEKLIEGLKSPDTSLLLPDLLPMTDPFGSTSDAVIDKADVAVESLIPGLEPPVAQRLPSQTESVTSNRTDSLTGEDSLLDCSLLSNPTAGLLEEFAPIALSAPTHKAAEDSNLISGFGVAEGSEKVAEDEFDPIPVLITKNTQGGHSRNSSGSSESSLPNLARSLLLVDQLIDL
T3 sequence (Q02750 whole entry): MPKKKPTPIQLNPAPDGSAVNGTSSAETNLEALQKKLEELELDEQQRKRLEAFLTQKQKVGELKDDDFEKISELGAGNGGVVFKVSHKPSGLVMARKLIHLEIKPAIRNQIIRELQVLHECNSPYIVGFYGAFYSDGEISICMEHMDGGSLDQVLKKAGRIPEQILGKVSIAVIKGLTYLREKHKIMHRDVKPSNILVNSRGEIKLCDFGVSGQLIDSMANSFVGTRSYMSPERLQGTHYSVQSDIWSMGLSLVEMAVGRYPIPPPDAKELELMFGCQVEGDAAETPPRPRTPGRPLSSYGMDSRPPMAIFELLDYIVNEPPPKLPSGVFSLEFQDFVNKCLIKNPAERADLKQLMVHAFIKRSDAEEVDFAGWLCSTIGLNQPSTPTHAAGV
Sequence of MAP kinase-interacting serine/threonine-protein kinase 1 (Q9BUB5 whole entry): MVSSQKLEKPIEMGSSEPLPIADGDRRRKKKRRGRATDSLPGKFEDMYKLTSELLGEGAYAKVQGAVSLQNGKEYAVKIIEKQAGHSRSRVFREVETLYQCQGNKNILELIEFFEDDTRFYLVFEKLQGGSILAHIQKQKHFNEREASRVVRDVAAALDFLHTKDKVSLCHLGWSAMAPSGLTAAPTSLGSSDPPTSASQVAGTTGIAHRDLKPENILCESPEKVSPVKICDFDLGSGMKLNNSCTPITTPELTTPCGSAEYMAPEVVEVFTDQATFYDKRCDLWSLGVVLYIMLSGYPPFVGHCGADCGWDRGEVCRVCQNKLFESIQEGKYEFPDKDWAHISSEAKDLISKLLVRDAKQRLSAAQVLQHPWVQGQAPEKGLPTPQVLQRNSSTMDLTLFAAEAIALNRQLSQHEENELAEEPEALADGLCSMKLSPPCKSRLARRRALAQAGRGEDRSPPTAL
Sequence of Myosin light chain kinase 2, skeletal/cardiac muscle (Q9H1R3 whole entry): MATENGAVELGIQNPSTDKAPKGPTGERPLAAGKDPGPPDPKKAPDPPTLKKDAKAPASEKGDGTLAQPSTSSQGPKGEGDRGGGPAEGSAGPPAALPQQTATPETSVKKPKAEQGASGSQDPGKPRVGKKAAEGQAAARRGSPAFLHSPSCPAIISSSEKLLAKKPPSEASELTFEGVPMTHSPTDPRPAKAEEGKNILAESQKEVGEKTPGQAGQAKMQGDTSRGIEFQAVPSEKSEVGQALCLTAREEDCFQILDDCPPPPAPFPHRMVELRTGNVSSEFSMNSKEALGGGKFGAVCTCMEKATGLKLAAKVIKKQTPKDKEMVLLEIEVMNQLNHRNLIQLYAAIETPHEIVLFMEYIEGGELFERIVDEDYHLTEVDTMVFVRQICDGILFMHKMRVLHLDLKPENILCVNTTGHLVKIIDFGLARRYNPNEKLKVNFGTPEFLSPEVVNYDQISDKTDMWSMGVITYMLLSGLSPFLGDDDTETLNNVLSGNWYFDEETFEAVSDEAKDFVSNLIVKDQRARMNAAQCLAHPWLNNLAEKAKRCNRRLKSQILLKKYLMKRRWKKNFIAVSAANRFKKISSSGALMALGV

As a reminder, the IC50 is the concentration that gives 50% inhibition. As usually defined, the Ki is a dissociation constant, usually derived from enzyme kinetics or from competition with a known ligand. On to `Cc1cc(-c2cc(C(F)F)c(OC[C@@](C)(N)CC(C)C)cn2)ccn1`, for which the Activity in data set [1] came to 85%. Further, the values for the remaining at 10 min, 0.5 µM in [2], in data set [3] and in [5] were 81%, 76% and 84%, respectively. Further, the IC50 against Aurora kinase C was 540 nM; in data set [4], 0.5 nM; in data set [6], 180 nM; in data set [7], 1600 nM; on Cytochrome P450 3A4, greater than 20 µM; in [9], 350 nM. The IC50 was 750 nM in [10], 250 nM in data set [11] and 0.9 nM in data set [12]. Besides, the Ki in data set [8] was found to be 0.18 nM.
In the case of `COC(=O)Nc1cc(-c2cnc(OC[C@@](C)(N)CC(C)C)c(Cl)c2)ccn1`, the IC50 in [13] was 1100 nM; in [4] it was 0.4 nM; in data set [6], 6 nM; on Cytochrome P450 3A4, greater than 20 µM; in data set [14], 1300 nM; in [15], 1800 nM. The IC50 is 4.2 nM in data set [12], 1860 nM in data set [16] and 740 nM in [17]. Moreover, in data set [1], the Activity came to 87%. In addition, the remaining at 10 min, 0.5 µM in data set [2] is 73%; in [3] it was 65%; in [5], 90%. In addition, in [8], the Ki is 0.11 nM.
Consider `CC(C)C[C@](C)(N)COc1cnc(-c2ccnc(Cl)c2)cc1C(F)F`, for which, in [1], the Activity was determined as 81%. Besides, the results for the remaining at 10 min, 0.5 µM in data set [2], in [3] and in data set [5] were 93%, 93% and 92%, respectively. Besides, the concentration for half-maximal inhibition (IC50) is 0.8 nM in [4]; 260 nM in [6]; greater than 20 µM on Cytochrome P450 3A4; 1700 nM in [18]; 490 nM in data set [11]; 2.7 nM in data set [12].
